The text below walks through data of paper doi:10.1101/2025.02.17.638454, “Synergistic RAS-MAPK and AKT Activation in MYC-Driven Tumors via Adjacent PVT1 Rearrangements” (bioRxiv, 2025).

The target of data set [1] is T1, recombinant KRAS protein (Homo sapiens, UniProt P01116).
T1 construct: purchased Abcam ab156968
Kind of data set: Isothermal titration calorimetry of HNB into recombinant KRAS. The data set is classed as binding. The note with it: ITC, pH 8.0, 25°C, N 1 (fixed). Here is the method:
(§1) Isothermal titration calorimetry (ITC) measures the change in temperature when two or more biomolecules bind to each other in a solution. The assay provides the binding affinity of ligands to proteins and the entropy or enthalpy of the reaction. Recombinant KRAS protein (#ab156968, Abcam) was dialyzed into the ITC assay buffer (20mM Tris pH 8.0, 100mM NaCl, 5mM Beta-mercaptoethanol) and concentrated to about 100 μM. During ITC titration twenty 6 μl injections (with intervals of 150 seconds) of 500μM HNB were made into the ITC cell containing 93 μM KRAS. Titration of 500μM HNB into the ITC assay buffer under the same conditions was used as the baseline control. ITC experiments were performed using Affinity ITC instrument (TA Instruments) at 25°C. The data was fitted and analyzed using NanoAnalyze software provided by TA Instruments. […]
(§2) bioRxiv preprint doi: https://doi.org/10.1101/2025.02.17.638454; this version posted February 22, 2025. The copyright holder for this preprint (which was not certified by peer review) is the author/funder, who has granted bioRxiv a license to display the preprint in perpetuity. It is made available under aCC-BY 4.0 International license. […]
For orientation: In ITC the heat of successive injections is recorded.

The test system of data set [2] is HNB. Kind of data set: ITC of HNB into assay buffer (self-interaction, baseline control). The data set is classed as binding. The note with it: 500 µM HNB into ITC assay buffer, 25°C. As to the method: as §1, §2
Data set [3] concerns SK-PN-DW cells. Kind of data set: Proliferation assay SK-PN-DW. The data set is classed as cell-based, human. Conditions: si.CircPVT1 vs si.Ctrl, n=3, two-way ANOVA, P<0.0001. The source says: Cancer cell lines: COLO-320DM, SK-PN-DW, U2OS, BxPC-3, DU145, SKBR-3 and, NCI-H1792 were obtained from American Type Culture Collection (Rockville, MD) and grown in their required growth medium per the American Type Culture Collection description. D458 and MB002 were obtained from Dr. Michael Taylor’s lab at SickKids hospital, Toronto. Cell line identity for the master stocks were verified by STR genotyping (IDEXX BioResearch)

The subject of data set [4] is FFX. Kind of data set: Western blot of FFX in D458. Type of data set: cell-based, human. The note with it: D458, siRNA vs si.Ctrl, anti-FFX antibody. As to the method: For whole-cell lysate, the cell pellet was resuspended in RIPA buffer (Cell Signaling Technologies, Danvers, MA) supplemented with a protease inhibitor cocktail (Cell Signaling Technologies) and incubated on ice for 20 minutes. The lysate was then centrifuged at 14,000 revolutions/minute for 10 minutes at 4°C, and the supernatant was harvested. Protein concentration was quantified by BCA Protein Assay Kit (Thermo Fisher Scientific) as per kit protocol. Next, 20 μg of whole-cell lysate was electrophoresed on a 4%–20% gradient polyacrylamide gel with SDS (Bio-Rad, Hercules, CA) and electroblotted onto polyvinylidene difluoride membranes (Bio-Rad). Membranes were blocked in Tris-buffered saline with 5% nonfat milk and 0.1% Tween and probed with antibodies. Bound proteins were detected with horseradish-peroxidase–conjugated secondary antibodies (Cell Signaling Technologies) and SuperSignal West Femto (Thermo Fisher Scientific). […]
(In general: Immunoblotting shows a protein as a band on a membrane.)

Data set [5] concerns HALLMARK_MTORC1_SIGNALING
Kind of data set: GSEA MTORC1 signaling, SK-PN-DW. Type of data set: cell-based, human. Conditions: si.CircPVT1 vs si.Ctrl, n=3, Padj = 0.010. An excerpt:
RNAseq processing: Raw reads were mapped to the hg19 human reference genome using the STAR aligner (v.2.5.0a) 66. PCR-duplicated reads and low mapping quality reads (MQ score below 20) were removed using Picard tools and SAMtools, respectively. Aligned reads were counted using htseq-count (v.0.6.1p1) 69 and normalized according to size factors method from DESeq2 70. We used fold change ≥2 and FDR <0.05 as the determination of differentially expressed genes (DEG). Statistical analysis and plots were performed inside R environment version 3.1.0. upload files) […]
bioRxiv preprint doi: https://doi.org/10.1101/2025.02.17.638454; this version posted February 22, 2025. The copyright holder for this preprint (which was not certified by peer review) is the author/funder, who has granted bioRxiv a license to display the preprint in perpetuity. It is made available under a CC-BY 4.0 International license . […]
Supplementary Figure 11: Gene set enrichment analysis scores (GSEA) analysis of genes involved in MTORC 1 signaling in COLO320DM (A) and SK-PN-DW (B) treated with si.CircPVT 1. si.Ctrl was used as control. n=3, for each treatment condition .
(also on this page, place not known: SK-PN-DWB MTORC1 si.CircPVT1. condition. Enrichment Score Enrichment Score .CC-BY licenseavailable preprintthis https://doi.org/10.1101/2025.02.17.638454doi:) […]

No end group written: not given here.

T1 sequence (P01116 1-188 isoform P01116-2): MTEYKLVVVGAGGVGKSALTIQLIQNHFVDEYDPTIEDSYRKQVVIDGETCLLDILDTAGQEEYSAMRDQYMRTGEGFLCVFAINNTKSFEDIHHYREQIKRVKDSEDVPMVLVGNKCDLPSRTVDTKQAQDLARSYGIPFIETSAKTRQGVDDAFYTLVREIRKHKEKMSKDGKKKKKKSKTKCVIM

In the case of MKTQLGAVKGFLHV [HNB], in data set [1], the “-TDS” value is given as -0.7 ± 1.5 kcal/mol and the DH is recorded as -4 ± 2 kcal/mol. For the same substance, the HNB self-interaction result in data set [2] was “not detected”.

Consider “si.CircPVT1: siRNA targeting the junction sequence of CircPVT1, 5’-UGGGCUUGAGGCCUGAUCUUU-3’ (other strand not given here)”, for which the cellular proliferation entry in data set [3] is recorded as “reduced cellular proliferation”. Also, the FFX protein expression entry in data set [4] is listed as “significantly reduced the protein”. Also, the “NES, HALLMARK_MTORC1_SIGNALING” value in data set [5] is recorded as -1.859.
